In patent publication US20160046592A1, “PHARMACEUTICAL COMPOSITION FOR THE TREATMENT OF DIABETES” (Ajinomoto Co., Inc., priority 2013, published 2016):
Structures can show the parent of a compound that is named as a salt.

Molecular target: T1, human GYS1 (glycogen synthase) (Homo sapiens, UniProt P13807)
T1 construct: made in house; host or cells: HEK293T
T1 sequence (P13807 1-737): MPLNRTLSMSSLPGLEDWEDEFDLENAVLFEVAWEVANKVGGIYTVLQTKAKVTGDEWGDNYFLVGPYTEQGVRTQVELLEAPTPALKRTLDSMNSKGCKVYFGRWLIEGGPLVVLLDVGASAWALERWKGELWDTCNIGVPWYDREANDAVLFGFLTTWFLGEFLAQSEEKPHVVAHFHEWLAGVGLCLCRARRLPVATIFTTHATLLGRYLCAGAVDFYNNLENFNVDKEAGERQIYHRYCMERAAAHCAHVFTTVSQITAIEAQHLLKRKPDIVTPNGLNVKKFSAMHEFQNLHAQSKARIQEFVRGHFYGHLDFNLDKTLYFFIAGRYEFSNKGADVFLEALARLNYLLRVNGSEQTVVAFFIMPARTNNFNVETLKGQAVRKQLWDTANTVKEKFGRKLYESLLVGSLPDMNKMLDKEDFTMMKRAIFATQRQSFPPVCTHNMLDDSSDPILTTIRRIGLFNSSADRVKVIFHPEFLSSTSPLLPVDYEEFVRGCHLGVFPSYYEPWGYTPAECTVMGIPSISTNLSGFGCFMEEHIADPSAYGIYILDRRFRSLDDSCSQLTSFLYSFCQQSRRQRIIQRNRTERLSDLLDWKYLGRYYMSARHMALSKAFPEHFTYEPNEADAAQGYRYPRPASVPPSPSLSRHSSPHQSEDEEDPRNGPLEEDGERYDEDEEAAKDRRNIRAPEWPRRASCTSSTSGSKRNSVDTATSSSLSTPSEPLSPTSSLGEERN
Test: Measurement of glycogen synthase activity
Type: biochemical
Conditions: concentration causing 50% increase in relative activity; 100% = compound of Example 1 of WO/2011/058154 at 10 μM; 10 mM Glucose-6-phosphate; 37° C. for 25 minutes (Examples 1 to 61 and 67 to 82) or 20 minutes (Examples 62 to 66); absorbance at 340 nm
Protocol: A human GYS1 expression plasmid (pCDNA3.1(+)-hGYS1) was constructed by the following method. By using a human skeletal muscle cDNA of Human MTC Panel I (Takara Bio Inc., 636742) as a template, a human GYS1 gene was amplified by a PCR method using cloning primers (Forward Primer: ATGCCTTTAAACCGCAC, Reverse Primer: TTAGTTACGCTCCTCGC). By using the amplified human GYS1 sequence as a template, restriction enzyme sequences were added by a PCR method using sub-cloning primers (Forward Primer: […], and Reverse Primer: […]), and then the human GYS1 gene was introduced between Xho I and Xba I sites of pCDNA3.1(+) (Invitrogen, V790-20).
Glycogen synthase was prepared by the following method. Human kidney-derived HEK293T cells were seeded in a dish (Thermo Fisher Scientific K.K., 168381) by using a 10% FBS-containing DMEM (Nacalai Tesque, Inc., 0845874) medium, and cultured overnight. Then, by using Lipofectamine LTX (Invitrogen, 15338-100), the cells were transfected with the human GYS1 expression vector according to the attached manual. After culturing under conditions of 37° C. and 5% CO2 for 2 days, the resultant was lysed in a lysis buffer (50 mM Tris-HCl (pH 8.0), 10 mM EDTA, 2 mM EGTA, 100 mM NaF, 1 mM PMSF, 1 mM DTT, and 1× Complete (Roche, 1873580)), homogenized, and then centrifuged at 16000×g at 4° C. for 15 minutes. The precipitated fraction re-dissolved by adding the lysis buffer was used as a glycogen synthase for evaluation.
The glycogen synthase activity was measured by the following method. To a polystyrene 96-well plate, solutions each containing 30 mM glycylglycine (pH 7.3), 40 mM KCl, 20 mM MgCl2, 9.2% DMSO containing one of the test compounds at one of various concentrations, and 10 mM Glucose-6-phosphate (Sigma-Aldrich, G7879) were added at 12 μL/well.
Next, a substrate solution containing 30 mM glycylglycine (pH 7.3), 4.3 mg/mL glycogen (Sigma-Aldrich, G8876), 21.6 mM UDP-glucose (Sigma-Aldrich, U4625), 21.6 mM phosphoenolpyruvic acid (Sigma-Aldrich, P0564), and 4.05 mM NADH (Sigma-Aldrich, N8129) was added at 18 μL/well.
Moreover, an enzyme solution containing 50 mM Tris-HCl (pH 8.0), 27 mM DTT (NACALAI TESQUE, INC., 14128-04), 0.2 mg/mL bovine serum albumin, 0.17 mg/mL glycogen synthase, and 1.5 μL pyruvate kinase/lactate dehydrogenase solution (Sigma-Aldrich, P0294) was added at 18 μL/well to prepare reaction solutions. After the reaction solutions were incubated (at 37° C. for 25 minutes for Examples 1 to 61 and 67 to 82 or at 37° C. for 20 minutes for Examples 62 to 66), the absorbance at 340 nm was measured by using Benchmark Plus (Bio-Rad Laboratories, Inc.).
The activity of each test compound was calculated by the following method. The absorbance at 340 nm of the reaction solution containing the compound and DMSO was subtracted from the absorbance at 340 nm of a reaction solution not containing the compound but containing only DMSO to calculate the change (ΔA340) in absorbance. The relative activity (%) of the test compound at each of the various concentrations was calculated, where the ΔA340 of a reaction solution containing the compound of Example 1 of WO/2011/058154 at a final concentration of 10 μM was taken as 100%. EC50 representing the concentration of the compound at which an increase in the relative activity by 50% was caused was calculated using XLfit (idbs).

Row | SMILES | EC50
1 | CSc1cc(F)c(F)cc1-c1ccc(OCc2cccc(C(=O)N(CC(=O)O)CC3CCN(C)CC3)c2)cc1 [Example 37, 2-[[3-[[4-(4,5-Difluoro-2-methylsulfanyl-phenyl)phenoxy]methyl]benzoyl]-[(1-methyl-4-piperidyl)methyl]amino]acetic Acid Trifluoroacetate] | 23 nM
2 | CCN1CCC(CN(CC(=O)O)C(=O)c2cccc(COc3ccc(-c4cc(F)c(F)cc4SC)cc3)c2)CC1 [Example 38, 2-[[3-[[4-(4,5-Difluoro-2-methylsulfanyl-phenyl)phenoxy]methyl]benzoyl]-[(1-ethyl-4-piperidyl)methyl]amino]acetic Acid Trifluoroacetate] | 19 nM
3 | CSc1cc(F)c(F)cc1-c1ccc(OCc2cccc(C(=O)N(CC(=O)O)Cc3cccnc3)c2)cc1 [Example 39, 2-[[3-[[4-(4,5-Difluoro-2-methylsulfanyl-phenyl)phenoxy]methyl]benzoyl]-(3-pyridylmethyl)amino]acetic Acid Trifluoroacetate] | 21 nM
4 | CSc1cc(F)c(F)cc1-c1ccc(OCc2cccc(C(=O)N(CC(=O)O)Cc3ncco3)c2)cc1 [Example 42, 2-[[3-[[4-(4,5-Difluoro-2-methylsulfanyl-phenyl)phenoxy]methyl]benzoyl]-(oxazol-2-ylmethyl)amino]acetic Acid] | 19 nM
5 | CSc1cc(F)c(F)cc1-c1ccc(OCc2cccc(C(=O)N(CCNC(C)=O)CC(=O)O)c2)cc1 [Example 44, 2-[2-Acetamidoethyl-[3-[[4-(4,5-difluoro-2-methylsulfanyl-phenyl)phenoxy]methyl]benzoyl]amino]acetic Acid] | 25 nM
6 | COC(C)CN(CC(=O)O)C(=O)c1cccc(COc2ccc(-c3cc(F)c(F)cc3SC)cc2)c1 (stereo not drawn) [Example 45, 2-[[3-[[4-(4,5-Difluoro-2-methylsulfanyl-phenyl)phenoxy]methyl]benzoyl]-(2-methoxypropyl)amino]acetic Acid] | 7.7 nM
7 | CSc1cc(F)c(F)cc1-c1ccc(OCc2cccc(C(=O)N(CC(=O)O)CC3CCS(=O)(=O)C3)c2)cc1 (stereo not drawn) [Example 46, 2-[[3-[[4-(4,5-Difluoro-2-methylsulfanyl-phenyl)phenoxy]methyl]benzoyl]-[(1,1-dioxothiolan-3-yl)methyl]amino]acetic Acid] | 25 nM
8 | CSc1cc(F)c(F)cc1-c1ccc(OCc2cccc(C(=O)N(CC(=O)O)[C@H]3CC[C@@H](N)CC3)c2)cc1 [Example 48, 2-[(4-Aminocyclohexyl)-[3-[[4-(4,5-difluoro-2-methylsulfanyl-phenyl)phenoxy]methyl]benzoyl]amino]acetic Acid Trifluoroacetate] | 13 nM

Further molecules by falling EC50, results first:

Row | EC50 | SMILES
9 | 24 nM | CSc1cc(F)c(F)cc1-c1ccc(OCc2cccc(C(=O)N(CCN3CCCC3)CC(=O)O)c2)cc1 [Example 40, 2-[[3-[[4-(4,5-Difluoro-2-methylsulfanyl-phenyl)phenoxy]methyl]benzoyl]-(2-pyrrolidin-1-ylethyl)amino]acetic Acid Trifluoroacetate]
10 | 21 nM | CSc1cc(F)c(F)cc1-c1ccc(OCc2cccc(C(=O)N(CCN3CCS(=O)(=O)CC3)CC(=O)O)c2)cc1 [Example 41, 2-[[3-[[4-(4,5-Difluoro-2-methylsulfanyl-phenyl)phenoxy]methyl]benzoyl]-[2-(1,1-dioxo-1,4-thiazinan-4-yl)ethyl]amino]acetic Acid Trifluoroacetate]
11 | 19 nM | CCNCCN(CC(=O)O)C(=O)c1cccc(COc2ccc(-c3cc(F)c(F)cc3SC)cc2)c1 [Example 43, 2-[[3-[[4-(4,5-Difluoro-2-methylsulfanyl-phenyl)phenoxy]methyl]benzoyl]-[2-(ethylamino)ethyl]amino]acetic Acid Trifluoroacetate]
12 | 18 nM | CSc1cc(F)c(F)cc1-c1ccc(OCc2cccc(C(=O)N(CC(=O)O)Cc3cnco3)c2)cc1 [Example 47, 2-[[3-[[4-(4,5-Difluoro-2-methylsulfanyl-phenyl)phenoxy]methyl]benzoyl]-(oxazol-5-ylmethyl)amino]acetic Acid]
